This is an account of results in US7579356B2, “Thia-tetraazaacenaphthylene kinase inhibitors” (Janssen Pharmaceutica NV, priority 2005, dated 2009).

Assay [1] concerns BT474 breast carcinoma. Put plainly: Cell Proliferation Inhibition Assay, BT474 (14C-thymidine). It is filed as cell-based. As to conditions: Homo sapiens, BT-474, C14 method. An excerpt: (§1) Cell Proliferation Inhibition Assay
(§2) The ability of a test compound to inhibit unregulated cell proliferation may be determined by measuring incorporation of ^14C-labelled thymidine into newly synthesized DNA within cell lines derived from carcinomas originating from several tissues. Accordingly, the effect of a test compound on proliferation of cells with a variety of phenotypes may be determined.
(§3) Carcinoma cell lines used include the HeLa cervical adenocarcinoma from the American Type Culture Collection (ATCC Cat. #CCL2), A375 malignant melanoma (ATCC Cat. #CRL-1619), HCT-116 colon carcinoma (ATCC Cat. #CCL-247), SKBR3 breast carcinoma (ATCC Cat. #HTB-30) and BT474 breast carcinoma (ATCC Cat. #HTB-20).
(§4) The carcinoma cells were trypsinized and counted. The cells (3000-8000 count) were added to each well of a 96-well CytoStar tissue culture treated scintillating microplate (Amersham #RPNQ0160) in complete medium (100 μL) and the plate was then incubated in complete medium for 24 hrs at 37° C. in an inert atmosphere containing 5% CO2.
(§5) Test compound (1 μL) in 100% DMSO was added to the plate test-wells with DMSO only added to control-wells. The plate was incubated in complete medium for a second 24 hr period at 37° C. in an atmosphere containing 5% CO2.
(§6) An aliquot of a solution of Methyl ^14C-thymidine (56 mC/mmol) (NEN #NEC568 or AMersham #CFA532) and complete medium (20 uL to provide 0.2 μCl/well) was then added to each well and the plate was incubated for a third 24 hr period at 37° C. in an atmosphere containing 5% CO2.
(§7) The plate contents were then discarded, the plate washed twice with PBS (200 μL) and then PBS (200 μL) was added to each well. The plate was sealed and the degree of methyl ^14C-thymidine incorporation was quantified on a Packard Top Count.
(§8) Cell proliferation of the Hela cell line was measured using the ATP-Lite method as described in the ATP Lite Kit (Perkin-Elmer Kit Number 6106941) or the C^14 method as described above. Cell proliferation of the other cell lines was measured using the C^14 method.

For assay [2], the system named is SKBR3 breast carcinoma. The experiment in a line: Cell Proliferation Inhibition Assay, SKBR3 (14C-thymidine). The class given is cell-based. As to conditions: Homo sapiens, SK-BR-3, C14 method.
From the text: as §1, §2, §3, §4, §5, §6, §7, §8

The target of assay [3] is T1, HER-4 (Homo sapiens, UniProt Q15303).
T1 construct: His6 with thrombin site (N); purchased Proqinase (Freiburg, Germany)
The experiment in a line: HER-4 Kinase Assay. The class given is biochemical. As for the experimental part:
The HER-4 kinase used was purified at Proqinase (Freiburg, Germany) from a construct that consisted of a fusion of GST (Glutathione-S-Transferase), HIS6-Thrombin and the nucleotides encoding amino acids 676 to 1307 of HER-4 (Accession NM 005235).
A mixture of a 10× kinase reaction buffer (600 mM Hepes at pH 7.5, 30 mM Magnesium Chloride, 0.03 mM Sodium Vanadate and 500 μg/mL PEG 20,000), DTT (1.2 mM final from a 10 mM) stock), ATP (1 μM from a 10 mM stock), biotinylated polyGluTyr (1.5 ng/μL final from stock of 1 μg/μL) prepared by Upstate Biotechnologies, Lake Placid, N.Y.), Manganese Chloride (3 mM final from a 1 M stock), γ-^33P-ATP (10 μCl/mL stock) and water (70 μL/well) was added to each well of a Streptavidin Flashplate (Cat. # SMP103, NEN, Boston, Mass.).
Test compound stock (1 μL) was added to the appropriate wells. Diluted GST HER-4 kinase (6.7 ng/μL diluted into 50 mM Tris-HCl at pH 8.0 and 0.1% bovine serum albumin) (30 μL) was added (total volume of 200 ng/well) to initiate the reactions.
The reaction plates were incubated at 30° C. for 1 hr. The reaction was terminated by aspirating the reaction mixture from the plate wells and washing the wells three times with a 1×PBS stop buffer (300 μL) and 100 mM EDTA. After the final wash, the same stop buffer (200 μL) was again added to the wells. The plates were then sealed and read on the TopCount scintillation counter.
For a series of test concentrations, the IC50 was derived by graphing percent inhibition against the log of the concentrations tested for a given compound.

The subject of assay [4] is Human epidermoid A431 carcinoma. Put plainly: In Vivo Models - Inhibition of Tumor Growth, A431. As to conditions: 100 mg/kg, oral daily for 30 days, athymic mice. As for the experimental part: In Vivo Models—Inhibition of Tumor Growth
The ability of test compounds to inhibit unregulated growth of human tumor cells in vivo was evaluated by implanting human tumor cells into the hindflank of athymic mice, administering a test compound and then quantifying any change in tumor size.
Human epidermoid A431 carcinoma, N87 cells and BT474 cells were implanted subcutaneously into the hindflank of female athymic mice (Charles River) and allowed to grow for 6-10 days. After a measurable tumor was established (as determined by baseline caliper measurement), the animal was administered an oral dose of the test compound daily for a period of 30 days. Tumor size was measured every five days and the degree of inhibition was determined by comparing drug-treated animals to vehicle-treated animals.
Variations of this method are intended to include intraperitoneal injection or intravenous infusion as the route of administration and administration of the test compound either alone or in a combination therapy.
The inhibition of tumor growth values are shown in Table 8 at various test concentrations, as indicated. For compounds with multiple values at one test concentration, each value represents a separate assay result.

T1 sequence (Q15303 676-1307): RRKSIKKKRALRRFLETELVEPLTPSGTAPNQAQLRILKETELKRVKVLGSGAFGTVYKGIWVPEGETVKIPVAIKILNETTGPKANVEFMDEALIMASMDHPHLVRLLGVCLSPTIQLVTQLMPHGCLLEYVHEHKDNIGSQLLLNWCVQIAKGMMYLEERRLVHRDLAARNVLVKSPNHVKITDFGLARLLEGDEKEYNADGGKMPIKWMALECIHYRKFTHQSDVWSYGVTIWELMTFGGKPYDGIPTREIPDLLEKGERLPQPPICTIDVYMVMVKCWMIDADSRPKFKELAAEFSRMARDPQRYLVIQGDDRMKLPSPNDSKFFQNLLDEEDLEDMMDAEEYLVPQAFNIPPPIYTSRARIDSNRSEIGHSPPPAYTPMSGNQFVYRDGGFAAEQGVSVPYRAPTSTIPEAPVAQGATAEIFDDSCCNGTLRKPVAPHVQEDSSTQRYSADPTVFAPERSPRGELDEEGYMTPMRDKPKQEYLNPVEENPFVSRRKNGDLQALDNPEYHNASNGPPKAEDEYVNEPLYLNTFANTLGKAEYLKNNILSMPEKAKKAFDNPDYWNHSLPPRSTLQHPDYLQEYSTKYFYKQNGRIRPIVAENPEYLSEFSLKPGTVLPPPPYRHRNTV

As for `O=C(Nc1ccc(CN2CCOCC2)cc1)c1sc2ncnc3c2c1NC(=O)N3c1cccc(Br)c1` [Cpd 36, 5-(3-bromo-phenyl)-4-oxo-4,5-dihydro-3H-1-thia-3,5,6,8-tetraaza-acenaphthylene-2-carboxylic acid (4-morpholin-4-ylmethyl-phenyl)-amide], the figures for the 50% inhibitory concentration (IC50) in assay [1] and in assay [2] were ≥ 100 µM and 100 µM, respectively.

Consider `O=C(O)c1sc2ncnc3c2c1NC(=O)N3c1ccc(OCc2ccccn2)c(Cl)c1` [Cpd 38, 5-[3-chloro-4-(pyridin-2-ylmethoxy)-phenyl]-4-oxo-4,5-dihydro-3H-1-thia-3,5,6,8-tetraaza-acenaphthylene-2-carboxylic acid], for which the IC50 – broadly, the concentration needed to halve the response being measured – in assay [1] is ≥ 100 µM; in assay [2], 100 µM.

`COc1ccc(NC(=O)c2sc3ncnc4c3c2NC(=O)N4c2ccc(OCc3ccccn3)c(Cl)c2)cc1OC` [Cpd 48, 5-[3-chloro-4-(pyridin-2-ylmethoxy)-phenyl]-4-oxo-4,5-dihydro-3H-1-thia-3,5,6,8-tetraaza-acenaphthylene-2-carboxylic acid (3,4-dimethoxy-phenyl)-amide]: the IC50 in assay [1] is ≥ 10 µM; in assay [2], 100 µM.

Take `O=C(Nc1ccc(CN2CCOCC2)cc1)c1sc2ncnc3c2c1NC(=O)N3c1ccc(OCc2ccccn2)c(Cl)c1` [Cpd 52, 5-[3-chloro-4-(pyridin-2-ylmethoxy)-phenyl]-4-oxo-4,5-dihydro-3H-1-thia-3,5,6,8-tetraaza-acenaphthylene-2-carboxylic acid (4-morpholin-4-ylmethyl-phenyl)-amide]: the results for the IC50 in assay [1] and in assay [2] were 5.98 µM and 2.61 µM, respectively.

As for `O=C(Nc1ccc(NCCCN2CCOCC2)nc1)c1sc2ncnc3c2c1NC(=O)N3c1cccc(Br)c1` [Cpd 64, 5-(3-bromo-phenyl)-4-oxo-4,5-dihydro-3H-1-thia-3,5,6,8-tetraaza-acenaphthylene-2-carboxylic acid [6-(3-morpholin-4-yl-propylamino)-pyridin-3-yl]-amide], the figures for the IC50 in assay [1] and in assay [2] were ≥ 10 µM and 100 µM, respectively.

Compound `O=C(Nc1ccc(CN2CCCCC2)cc1)c1sc2ncnc3c2c1NC(=O)N3c1ccc(Oc2ccccc2)cc1` [Cpd 96, 4-oxo-5-(4-phenoxy-phenyl)-4,5-dihydro-3H-1-thia-3,5,6,8-tetraaza-acenaphthylene-2-carboxylic acid (4-piperidin-1-ylmethyl-phenyl)-amide] yielded a concentration for half-maximal inhibition (IC50) in assay [3] of 0.018 µM.

Regarding `O=C(Nc1ccc(CN2CCOCC2)cc1)c1sc2ncnc3c2c1NC(=O)N3c1ccc(Oc2ccccc2)cc1` [Cpd 97, 4-oxo-5-(4-phenoxy-phenyl)-4,5-dihydro-3H-1-thia-3,5,6,8-tetraaza-acenaphthylene-2-carboxylic acid (4-morpholin-4-ylmethyl-phenyl)-amide], the midpoint of inhibition in assay [3], the IC50, lay at 0.099 µM.

Compound `CN1CCN(Cc2ccc(NC(=O)c3sc4ncnc5c4c3NC(=O)N5c3ccc(Oc4ccccc4)cc3)cc2)CC1` [Cpd 98, 4-oxo-5-(4-phenoxy-phenyl)-4,5-dihydro-3H-1-thia-3,5,6,8-tetraaza-acenaphthylene-2-carboxylic acid [4-(4-methyl-piperazin-1-ylmethyl)-phenyl]-amide] displayed a half-inhibitory concentration (IC50) in assay [3] of 0.081 µM.

As for `O=C(Nc1ccc(CN2CCCCC2)cc1)c1sc2ncnc3c2c1NC(=O)N3c1ccc(Sc2ccccc2)cc1` [Cpd 169, 4-oxo-5-(4-phenylsulfanyl-phenyl)-4,5-dihydro-3H-1-thia-3,5,6,8-tetraaza-acenaphthylene-2-carboxylic acid (4-piperidin-1-ylmethyl-phenyl)-amide], the figures for the IC50 in assay [3], in assay [1] and in assay [2] were 0.03 µM, 0.383 µM and 0.144 µM, respectively. Moreover, the “percent inhibition A431” value in assay [4] was 55.4%.

For `O=C(Nc1ccc(CN2CCOCC2)cc1)c1sc2ncnc3c2c1NC(=O)N3c1ccc(Sc2ccccc2)cc1` [Cpd 178, 4-oxo-5-(4-phenylsulfanyl-phenyl)-4,5-dihydro-3H-1-thia-3,5,6,8-tetraaza-acenaphthylene-2-carboxylic acid (4-morpholin-4-ylmethyl-phenyl)-amide], the figures for the IC50 in assay [3], in assay [1] and in assay [2] were 0.126 µM, 0.158 µM and 0.292 µM, respectively.
